Where two headings read alike, the source gives them in different places. Each block holds one compound with its values, some of them ahead of it.
What was measured:
[1] = system: MV4-11; assay: Cell proliferation assay (MTS); assay type: cell-based; conditions: Homo sapiens
[2] = system: LAL-CUN-2; assay: Cell proliferation assay (MTS); assay type: cell-based; conditions: Homo sapiens, 48 h
[3] = system: OCI-Ly3; assay: Cell proliferation assay (MTS); assay type: cell-based; conditions: Homo sapiens
[4] = system: OCI-Ly10; assay: Cell proliferation assay (MTS); assay type: cell-based, human; conditions: Homo sapiens, OCI-Ly10, 48 h
[5] = system: OCI-AML-2; assay: Cell proliferation assay (MTS); assay type: cell-based, human
[6] = system: CEMO-1; assay: Cell proliferation assay (MTS); assay type: cell-based, human; conditions: 48 h
[7] = molecular target: T1, DNMT1 catalytic domain (501-1632) (Homo sapiens, UniProt P26358); assay: SPR on immobilised DNMT1; assay type: binding
T1 construct: Flag (N); purchased
Text: We have indeed tried to measure the affinity of the reported compounds for DNMT1 using SPR. For that, we attempted SPR experiments using the two different DNMT1 protein constructs we can purchase: A full length DNMT1 with an N-terminal GST fusion, and a shorter construct containing the […]
First, we immobilized GST-tagged full length DNMT1 to a chip containing anti-GST antibody, but the amount immobilized was only 8% of the GST Ab chip capacity, and insufficient to detect binding of the ca. 500 Da compounds, presumably due to steric impediments resulting from the large size (dimer of 209 kDa monomers) of the GST-DNMT1 fusion protein. The theoretical SPR signal expected for the compounds binding with a 1:1 stoichiometry to the amount of protein immobilized (2300 RU) is only 5 response units (RU), with the precision of our BiacoreX100 SPR instrument typically being 1- […]
reference channels at 5 µM, indicating unspecific binding to the chip surface/Ab/GST, and very likely masking their possible direct binding to DNMT1. Compound injections at 200 µM […]
differential increase in the DNMT1 channel that indicates non-reversible binding with a high stoichiometry (responses of 81 and 65 RU, respectively; with 5 RU expected for a 1:1 binding), likely resulting from aggregation of the compounds at 200 µM concentration in the DNMT1 channel. […]
properly measured. […]

[8] = molecular target: T2, G9a (Homo sapiens, UniProt Q96KQ7); assay: G9a enzyme activity assay (TR-FRET); assay type: biochemical; conditions: for IC50: TR-FRET, internally determined
T2 sequence (Q96KQ7 1-1210): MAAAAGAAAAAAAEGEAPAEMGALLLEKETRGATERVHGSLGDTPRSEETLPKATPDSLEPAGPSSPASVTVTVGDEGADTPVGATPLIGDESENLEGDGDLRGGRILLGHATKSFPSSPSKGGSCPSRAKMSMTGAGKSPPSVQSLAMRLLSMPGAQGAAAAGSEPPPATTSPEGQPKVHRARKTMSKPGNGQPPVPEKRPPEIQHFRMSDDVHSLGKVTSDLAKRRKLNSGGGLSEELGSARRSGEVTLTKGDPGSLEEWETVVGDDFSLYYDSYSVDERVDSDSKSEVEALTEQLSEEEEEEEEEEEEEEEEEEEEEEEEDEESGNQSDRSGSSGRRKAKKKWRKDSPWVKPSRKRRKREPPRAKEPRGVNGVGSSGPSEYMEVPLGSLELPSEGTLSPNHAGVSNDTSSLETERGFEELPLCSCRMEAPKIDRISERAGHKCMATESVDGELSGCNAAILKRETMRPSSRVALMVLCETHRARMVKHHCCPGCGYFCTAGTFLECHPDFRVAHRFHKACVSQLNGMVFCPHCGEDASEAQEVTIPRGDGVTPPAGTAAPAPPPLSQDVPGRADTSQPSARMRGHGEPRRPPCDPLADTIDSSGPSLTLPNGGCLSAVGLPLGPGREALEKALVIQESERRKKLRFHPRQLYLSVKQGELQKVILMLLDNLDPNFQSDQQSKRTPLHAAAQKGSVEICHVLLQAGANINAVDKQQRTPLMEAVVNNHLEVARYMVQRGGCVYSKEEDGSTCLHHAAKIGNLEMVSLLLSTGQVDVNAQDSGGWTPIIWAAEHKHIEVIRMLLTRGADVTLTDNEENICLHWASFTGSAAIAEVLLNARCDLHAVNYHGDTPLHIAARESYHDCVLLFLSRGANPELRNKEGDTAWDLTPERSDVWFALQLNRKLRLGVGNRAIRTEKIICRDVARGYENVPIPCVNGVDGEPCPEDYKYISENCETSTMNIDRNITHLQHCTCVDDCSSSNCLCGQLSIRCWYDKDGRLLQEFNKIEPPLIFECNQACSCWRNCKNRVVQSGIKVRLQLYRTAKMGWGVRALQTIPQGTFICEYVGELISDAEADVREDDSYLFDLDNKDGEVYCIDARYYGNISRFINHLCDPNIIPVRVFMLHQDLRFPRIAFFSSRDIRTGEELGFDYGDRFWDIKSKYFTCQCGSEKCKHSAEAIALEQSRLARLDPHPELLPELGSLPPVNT

[9] = molecular target: T3, human DNMT1 enzyme (Homo sapiens, UniProt P26358); assay: DNMT1 enzyme activity assay (TR-FRET); assay type: biochemical; conditions: internally determined
T3 construct: purchased

[10] = MV4-11, AML, 48 h, read-out: GI50
[11] = OCI-Ly3, ABC-DLBCL, 48 h, read-out: GI50
[12] = ABC-DLBCL, 48 h, read-out: GI50
[13] = Homo sapiens, OCI-AML2, AML, 48 h, read-out: GI50
[14] = Homo sapiens, ALL, read-out: GI50
[15] = Homo sapiens, CEMO-1, 48 h, as used in apoptosis assay, read-out: GI50

T1 sequence (P26358 485-1616): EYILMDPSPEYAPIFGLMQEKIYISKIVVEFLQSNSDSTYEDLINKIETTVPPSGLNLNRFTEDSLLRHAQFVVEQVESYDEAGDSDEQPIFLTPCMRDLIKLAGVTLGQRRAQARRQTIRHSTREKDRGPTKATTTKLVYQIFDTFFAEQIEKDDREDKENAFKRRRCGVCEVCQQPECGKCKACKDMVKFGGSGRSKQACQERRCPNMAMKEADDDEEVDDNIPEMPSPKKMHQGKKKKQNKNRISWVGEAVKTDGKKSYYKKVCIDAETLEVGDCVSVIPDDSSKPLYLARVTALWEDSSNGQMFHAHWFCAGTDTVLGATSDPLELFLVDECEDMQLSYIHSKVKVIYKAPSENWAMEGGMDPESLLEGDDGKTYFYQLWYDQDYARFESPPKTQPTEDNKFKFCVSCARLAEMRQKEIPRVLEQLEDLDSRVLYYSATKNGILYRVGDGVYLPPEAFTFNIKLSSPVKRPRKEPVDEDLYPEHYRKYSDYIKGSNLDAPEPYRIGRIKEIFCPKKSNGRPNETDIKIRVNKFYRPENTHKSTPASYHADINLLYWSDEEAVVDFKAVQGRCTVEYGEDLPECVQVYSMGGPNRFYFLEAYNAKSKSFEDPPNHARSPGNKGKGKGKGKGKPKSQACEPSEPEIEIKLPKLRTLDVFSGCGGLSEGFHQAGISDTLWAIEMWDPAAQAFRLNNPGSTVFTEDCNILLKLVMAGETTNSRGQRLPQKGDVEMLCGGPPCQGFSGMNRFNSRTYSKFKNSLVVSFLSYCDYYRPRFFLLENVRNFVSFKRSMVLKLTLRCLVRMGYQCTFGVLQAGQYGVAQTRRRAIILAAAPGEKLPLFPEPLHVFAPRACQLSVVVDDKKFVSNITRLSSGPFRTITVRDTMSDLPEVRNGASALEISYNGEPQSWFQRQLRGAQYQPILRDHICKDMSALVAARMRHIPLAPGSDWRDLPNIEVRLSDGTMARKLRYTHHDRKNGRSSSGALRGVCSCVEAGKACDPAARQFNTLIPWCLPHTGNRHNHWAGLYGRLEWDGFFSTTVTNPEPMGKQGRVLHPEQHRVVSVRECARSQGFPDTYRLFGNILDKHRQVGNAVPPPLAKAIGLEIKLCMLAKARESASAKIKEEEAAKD
T3 sequence (P26358 whole entry): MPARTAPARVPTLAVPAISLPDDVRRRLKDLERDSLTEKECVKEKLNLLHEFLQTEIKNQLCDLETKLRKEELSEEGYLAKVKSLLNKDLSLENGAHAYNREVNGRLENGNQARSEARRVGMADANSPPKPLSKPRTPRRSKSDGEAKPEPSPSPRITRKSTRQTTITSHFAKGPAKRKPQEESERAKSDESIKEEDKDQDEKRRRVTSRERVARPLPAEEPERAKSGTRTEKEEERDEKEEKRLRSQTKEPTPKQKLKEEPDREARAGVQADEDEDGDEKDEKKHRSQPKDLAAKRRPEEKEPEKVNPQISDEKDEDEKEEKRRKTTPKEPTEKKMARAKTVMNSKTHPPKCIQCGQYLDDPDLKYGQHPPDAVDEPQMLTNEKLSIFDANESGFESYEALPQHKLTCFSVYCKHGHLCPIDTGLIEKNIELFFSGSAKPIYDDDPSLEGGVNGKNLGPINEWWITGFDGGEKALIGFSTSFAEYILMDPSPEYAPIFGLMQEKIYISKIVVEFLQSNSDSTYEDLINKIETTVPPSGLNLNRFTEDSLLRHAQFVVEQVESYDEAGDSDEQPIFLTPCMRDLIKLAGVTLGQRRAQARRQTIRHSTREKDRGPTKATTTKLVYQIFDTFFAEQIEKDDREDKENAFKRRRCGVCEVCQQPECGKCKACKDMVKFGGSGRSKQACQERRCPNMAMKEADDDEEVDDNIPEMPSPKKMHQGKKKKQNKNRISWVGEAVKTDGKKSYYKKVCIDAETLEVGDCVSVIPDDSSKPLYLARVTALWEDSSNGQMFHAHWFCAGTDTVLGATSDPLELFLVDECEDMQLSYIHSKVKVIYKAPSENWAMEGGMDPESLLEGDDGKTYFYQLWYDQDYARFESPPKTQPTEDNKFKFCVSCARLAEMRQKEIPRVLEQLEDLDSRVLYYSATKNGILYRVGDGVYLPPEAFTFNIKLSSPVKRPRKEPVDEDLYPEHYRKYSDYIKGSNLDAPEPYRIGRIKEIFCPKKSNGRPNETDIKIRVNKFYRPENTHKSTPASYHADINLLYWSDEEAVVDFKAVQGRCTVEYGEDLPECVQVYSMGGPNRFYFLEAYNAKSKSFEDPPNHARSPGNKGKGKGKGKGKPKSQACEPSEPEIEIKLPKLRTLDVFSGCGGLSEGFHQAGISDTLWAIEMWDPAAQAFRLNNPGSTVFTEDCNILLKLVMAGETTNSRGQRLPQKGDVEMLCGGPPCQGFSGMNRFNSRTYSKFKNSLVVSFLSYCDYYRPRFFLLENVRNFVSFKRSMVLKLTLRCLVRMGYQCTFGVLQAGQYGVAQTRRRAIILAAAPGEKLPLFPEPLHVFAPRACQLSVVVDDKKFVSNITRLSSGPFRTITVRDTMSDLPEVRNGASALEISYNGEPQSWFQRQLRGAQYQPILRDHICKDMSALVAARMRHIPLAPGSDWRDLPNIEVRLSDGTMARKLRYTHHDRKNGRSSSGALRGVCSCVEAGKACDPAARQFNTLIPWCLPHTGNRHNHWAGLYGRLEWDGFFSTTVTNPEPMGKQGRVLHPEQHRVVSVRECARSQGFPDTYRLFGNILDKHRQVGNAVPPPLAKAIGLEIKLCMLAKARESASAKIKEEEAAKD

GI50 [1, 10]: 12 µM
GI50 [3, 11]: > 4 µM
GI50 [4, 12]: > 4 µM
GI50 [5, 13]: 7.33 µM
SMILES: COc1cc2c(NC3CCN(C(C)C)CC3)nc(C3CCCCC3)nc2cc1OCCCN1CCCC1 [UNC-0638]
GI50 ([2]; ALL, read-out: GI50): 5.18 µM
GI50 [6, 14]: 4.73 µM
GI50 [6, 15]: 4.7 µM

Kd [7]: 15 to 20 µM
SMILES: C[S+](CC[C@H](N)C(=O)[O-])C[C@H]1O[C@@H](n2cnc3c(N)ncnc32)[C@H](O)[C@@H]1O (stereo partly drawn) [SAM, S-adenosyl-L-methionine]

SMILES: Nc1ncn([C@H]2C[C@H](O)[C@@H](CO)O2)c(=O)n1 [Decitabine, decitabine]
GI50 ([1]; MV4-11, 48 h): > 50 µM
GI50 [2]: > 22.4 µM
GI50 ([3]; OCI-Ly3, 48 h): > 4 µM
GI50 [4]: > 4 µM
GI50 ([5]; Homo sapiens, OCI-AML2, 48 h): > 10 µM
GI50 ([6]; ALL): 0.49 µM
GI50 ([6]; Homo sapiens, ALL): 0.506 µM
IC50 [8]: > 10 µM

SMILES: COc1cc2nc(N3CCCN(C)CC3)nc(NC3CCN(Cc4ccccc4)CC3)c2cc1OC [BIX-01294]
GI50 [1, 10]: 11.9 µM
IC50 [9]: > 10 µM
GI50 ([2]; ALL, read-out: GI50): 5.94 µM
GI50 [3, 11]: > 4 µM
GI50 [4, 12]: > 4 µM
GI50 [5, 13]: 6.32 µM
GI50 [6, 14]: 2.91 µM
GI50 [6, 15]: 2.9 µM

GI50 ([5]; OCI-AML-2, combination study set-up, read-out: GI50): > 50 µM
SMILES: COc1cc2c(cc1OCCCN1CCCC1)N=C(N)C21CCC1 [A-366]

SMILES: COc1cc2c(OC3CCN(C)CC3)cc(-c3ccc(C)o3)nc2cc1OCCCN1CCCC1 [CM-1021, 6-methoxy-2-(5-methyl-2-furyl)-4-[(1-methyl-4-piperidyl)oxy]-7-(3-pyrrolidin-1-ylpropoxy)quinoline]
reduction of primary activity (4-oxyquinoline vs 4-aminoquinoline) ([8]; secondary amine replaced by ether): more than 2.5 log units

SMILES: Nc1ncn([C@@H]2O[C@H](CO)[C@@H](O)[C@H]2O)c(=O)n1 [Azacitidine, azacitidine]
GI50 [1, 10]: 5.56 µM
GI50 ([2]; ALL, read-out: GI50): 21.2 µM
GI50 [3, 11]: 1.93 µM
GI50 [4, 12]: 2.6 µM
GI50 [5, 13]: > 10 µM
GI50 [6, 14]: 3.96 µM
GI50 [6, 15]: 7.7 µM
IC50 [8]: > 10 µM
